Where two headings read alike, the source gives them in different places. Marks after values point to notes of the source that are not given here.
How the values were obtained:
cytidine deaminase (CD) = biological target: T1, cytidine deaminase (CD) (Homo sapiens, UniProt P32320); test: Competition assay for substrates of cytidine deaminase, crude extracts of PC-3 cells; type: biochemical; settings: for substrate for cytidine deaminase (in words): competition studies, human tumor cell extracts; for % Inhibition (CD) / inhibition at 250 µM: competitor 250 μM; for % Inhibition (CD) / inhibition / inhibition at 250 µM: ratio 10, PC-3 extracts
T1 construct: Crude extracts of PC-3 cells in culture were prepared as described above; endogenous in cells; host or cells: PC-3 cells (crude extract supernatant)
T1 sequence (P32320 whole entry): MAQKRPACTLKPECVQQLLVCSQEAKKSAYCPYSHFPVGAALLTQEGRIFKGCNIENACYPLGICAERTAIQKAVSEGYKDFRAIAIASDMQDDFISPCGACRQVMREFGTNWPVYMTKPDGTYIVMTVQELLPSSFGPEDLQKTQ
Protocol: The crude enzyme extract (the supernatant of a 10 minute 14,000×g centrifugation) was then added. When cytidine was used as substrate, assays were conducted with benzacyclouridine to inhibit uridine phosphorylases. […] After 0, 15, and 30 minutes, the reaction was stopped and denatured protein removed as above for dC Kinase. […] Aliquots were then spotted on PE cellulose TLC sheets and the reactants separated with a solvent system composed of isopropanol:HCl:H2O (170:41:39). […] The nucleosides were visualized under U.V. light and the spots cut out and counted. […] Enzyme activity was expressed as nmole formed in 30 min/mg/protein.
Competition assays to determine Substrate Specificity: Crude extracts of PC-3 cells in culture were prepared as described above. Two concentrations of crude extract were utilized for the studies as determined from the analysis of protein.
The assays were run for 0, 15, and 30 minutes.

PC-3 cells [1] = test: Radiosensitization of cells in culture (Cobalt 60, clonogenic survival); type: cell-based, human; settings: for effect of tetrahydrouridine (H4U) on radiosensitization (in words) / effect of thymidine on radiosensitization (in words): cells in culture
Protocol: (§1) Toxicity and Radiation Studies: The methods using clonogenic assays described by Perez and Greer (Int. J. Rad. Oncology: Biology, Physics 12, 1523-1527, 1986—incorporated herein by reference in its entirety) were followed.
Irradiation of Cells in Culture: 2×10^5 cells were plated in 25 cm^2 flasks and grown for 18 hr at 37° C. in a humidified 5% CO2 atmosphere. The medium was then removed and replaced with medium containing the appropriate drug concentrations and incubated for 72 hrs then removed and the cell monolayers were rinsed twice with PBS. The flasks were then filled with 50 ml of radiation medium (3 parts RPMI 1640 and 7 parts PBS plus antibiotics and glutamine). The cells were then irradiated using a Cobalt 60 irradiator. The cell monolayers were placed 35 cm away from the source and irradiated for appropriate times according to the dose rate. The dose rate was calculated, at this distance, using ionization chambers. Attenuation factors due to the polystyrene flask (0.9923) and the medium (H2O=0.8715) were considered in calculating the exposure period.
After irradiation the cell monolayers were washed again, replenished with growth media, and incubated for 1½ hours. The cell monolayers were then trypsinized and the cells serially diluted, appropriate dilutions were then plated in 60 mm dishes and incubated for 7-9 days at 37° C. and CO2. At the end of this period the cells were stained with crystal violet and the colony forming ability determined by considering 25 or more normal cells as a viable colony. The viabilities were determined and the appropriate survival curves derived. All conditions were done in duplicate using two flasks treated under identical conditions.

PC-3 cells [2] = test: Cytotoxicity (clonogenic) assay, 72 h drug exposure; type: cell-based, human
Protocol: as §1
Cytotoxicity Assays: 5×10^5 cells were plated in 60 mm tissue culture dishes in 5 mls of the optimal growth media for the particular cell line in an humidified 95% air-5% CO2 atmosphere. The plates were incubated for 18-20 hours to allow for attachment and log-phase growth to begin. At the end of this period the growth medium was aspirated and replaced with […]. Four times (4×) concentrated solutions were prepared and then 1 ml was added to the plates; and growth media were then added to a total volume of […]. The plates were then incubated for 72 hours and the cells harvested by trypsinization. The cells were then serially diluted in growth medium replated into 60 mm dishes and incubated for 6 to 9 days depending on the cell line. After this incubation period, the media was aspirated and the colonies were washed twice with a PBS solution. The colonies were then stained with a 0.2% crystal violet-20% ethanol solution for 5 min. the stain was removed, the colonies were washed and air dried. A viable colony was one consisting of 25 or more normal appearing cells and was considered to have arisen from a single cell. The colonies were counted under a dissecting microscope. Two to three dilutions for every condition were plated. Dishes containing 30-300 colonies were used in the calculation and all conditions were done in duplicate.

uridine/cytidine kinase = test: Competition assay for substrates of uridine/cytidine kinase, crude extracts of T24 cells; type: biochemical, human
Protocol: 2 mM dithiothreitol (DTT) and 0.5 mM phenylmethylsulfanyl fluoride were added just before extraction. The tissue sample was homogenized in a Dounce glass homogenizer and then sonicated for 3 five-second pulses in a Branson Sonifier with a micro-tip at 25 KHz to disrupt the cells. During homogenization and sonication the extract was kept cold throughout the procedures. The tissue extract was then centrifuged at 14,000×g at 4° C. for 15 min., and the supernatant (the crude enzyme extract) was removed. The supernatant was sheared 20 times on ice utilizing a 1 cc syringe with a 27 G½ needle to reduce viscosity. […] 2 mM DTT and 340 μM H4U were added just before the assay. Finally, to the reaction mixture, 5 μl 200 mM creatine phosphate and creatine phosphokinase (0.5 unit/μl) was added to 150 μl of the section mixture. […] H2O bath for 1 minute before 20 μl of the crude enzyme extract was added to initiate the reaction. […] At 0, 30 and 60 minutes the reaction mixture, divided in separate tubes, was heated in a boiling water bath for 2 minutes to terminate the reaction. Denatured protein was then removed by centrifugation of the sample for 2 minutes at 14,000×g. The amount of nucleotide formed was determined by spotting 20 μl aliquots of the reaction mixture onto DE-81 2.2 cm Whatman filter discs. After air drying, the unphosphorylated substrate nucleoside was removed by washing twice for 10 min. in 20 mM ammonium formate and twice for 5 min. in deionized H2O with gentle stirring. A control, lacking the crude enzyme extract was included with each determination. The washed papers were dried under a heat lamp and then placed into individual scintillation vials, eluted for 30 min. in 1 ml of 0.1M HCl-0.1M KCL and then vortexed in 5 ml of scintillation fluid and counted. Enzyme activity was expressed as pmoles/min/mg protein.
When uridine was utilized as substrate, benzacyclouridine was added to prevent the catabolism of the substrate by uridine phosphorylase and tetrahydrouridine was omitted.

[3] = biological target: deoxycytidine kinase (dCK) (Homo sapiens, UniProt P27707); test: Competition assay for substrates of deoxycytidine kinase, crude extracts of PC-3 cells; settings: for inhibition at 250 µM: read-out: % Inhibition (dCK)
deoxycytidine kinase (dCK), sequence (P27707 whole entry): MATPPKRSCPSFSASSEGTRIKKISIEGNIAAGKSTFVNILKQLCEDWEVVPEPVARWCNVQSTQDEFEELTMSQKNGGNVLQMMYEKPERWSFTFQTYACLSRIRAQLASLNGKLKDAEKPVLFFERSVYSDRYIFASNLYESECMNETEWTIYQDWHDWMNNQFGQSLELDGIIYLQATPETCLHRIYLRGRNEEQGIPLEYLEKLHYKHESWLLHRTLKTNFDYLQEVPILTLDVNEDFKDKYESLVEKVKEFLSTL

[4] = substrate 3H-Deoxycytidine 25 μM
[5] = competitor 100 μM, substrate 3H-Cytidine 8.3 μM
[6] = competitor 100 μM, substrate 3H-Uridine 16.7 μM
[7] = competitor 250 μM, substrate 3H-Cytidine 8.3 μM
[8] = competitor 250 μM, substrate 3H-Uridine 16.7 μM
[9] = competitor 500 μM, substrate 3H-Cytidine 8.3 μM
[10] = competitor 500 μM, substrate 3H-Uridine 16.7 μM
[11] = competitor 750 μM, substrate 3H-Uridine 16.7 μM

CNc1nc(=O)n([C@H]2C[C@H](O)[C@@H](CO)O2)cc1Cl [4-N,methylamino CldC, 4-N, methylamino-5-Chloro-2′-deoxycytidine]
substrate for cytidine deaminase (in words) (cytidine deaminase (CD)): reasonably good substrate
% Inhibition (CD) (cytidine deaminase (CD); substrate 3H-Cytidine 25 μM): 13%
% Inhibition (CD) (cytidine deaminase (CD); [4]): 29%
radiosensitization of PC-3 cells (in words) (PC-3 cells [1]): potent radiosensitizing effect
effect of tetrahydrouridine (H4U) on radiosensitization (in words) (PC-3 cells [1]): antagonism by tetrahydrouridine
effect of thymidine on radiosensitization (in words) (PC-3 cells [1]): antagonized by thymidine

CNc1nc(=O)n([C@H]2C[C@H](O)[C@@H](CO)O2)cc1F [4-N,methylamino FdC, 4-N, methylamino-5-Fluoro-2′-deoxycytidine]
substrate for cytidine deaminase (in words) (cytidine deaminase (CD); listed as 4-N, methylamino FdC): poor substrate
substrate for cytidine deaminase (in words) (cytidine deaminase (CD); listed as 4-N, methylamino-5-Fluoro-2′-deoxycytidine): moderate to poor substrate
% Inhibition (CD) (cytidine deaminase (CD); substrate 3H-Cytidine 25 μM): 0%
% Inhibition (CD) (cytidine deaminase (CD); [4]): 4.0%
effect of thymidine on cytotoxicity (in words) (PC-3 cells [2]; PC-3 cells): antagonized by thymidine
effect of tetrahydrouridine (H4U) on cytotoxicity / viability (in words) (PC-3 cells [2]; PC-3 cells, listed as 4-N, methylamino FdC): antagonized by tetrahydrouridine
effect of tetrahydrouridine (H4U) on cytotoxicity / viability (in words) (PC-3 cells [2]; PC-3 cells, listed as 4N, methylFdC): prevented by tetrahydrouridine

O=c1[nH]c(=O)n(COCCO)cc1Cc1ccccc1 [5-Benzacyclouridine]
% Inhibitation (U/C kinase) (uridine/cytidine kinase; competitor 1500 μM, substrate 3H-Cytidine 8.3 μM): 0%
% Inhibitation (U/C kinase) (uridine/cytidine kinase; competitor 1500 μM, substrate 3H-Uridine 16.7 μM): 7.0%

Nc1nc(=O)n([C@H]2C[C@H](O)[C@@H](CO)O2)cc1Br [5-BrdC, 5-Bromo-2′-deoxycytidine]
substrate for cytidine deaminase (in words) (cytidine deaminase (CD)): good substrates
inhibition (cytidine deaminase (CD); substrate 3H-Cytidine 25 μM): 50%
effect of thymidine on radiosensitization (in words) (PC-3 cells [1]): antagonized by thymidine
substrate for deoxycytidine kinase (in words) ([3]; competition studies, human tumor cell extracts): very poor substrates
inhibition at 250 µM [3]: 0%

Nc1nc(=O)n([C@@H]2O[C@H](CO)[C@@H](O)[C@H]2O)cc1Cl [5-Chlorocytidine]
effect of tetrahydrouridine (H4U) on cytotoxicity / viability (in words) (PC-3 cells [2]; human, 72 h): H4U decreases viability
substrate for U/C kinase of T24 cells (in words) (uridine/cytidine kinase): moderate substrates
% Inhibitation (U/C kinase) (uridine/cytidine kinase; [5]): 10%
% Inhibitation (U/C kinase) (uridine/cytidine kinase; [6]): 2%
% Inhibitation (U/C kinase) (uridine/cytidine kinase; [7]): 24%
% Inhibitation (U/C kinase) (uridine/cytidine kinase; [8]): 23%
radiosensitization of PC-3 cells (in words) (PC-3 cells [1]): radiosensitization
effect of tetrahydrouridine (H4U) on radiosensitization (in words) (PC-3 cells [1]): decreases radiosensitization

Nc1nc(=O)n([C@H]2C[C@H](O)[C@@H](CO)O2)cc1Cl [5-Chlorodeoxycytidine, 5-chloro-2′-deoxycytidine, reference compound]
inhibition at 250 µM (cytidine deaminase (CD); [4]): 42%
inhibition (cytidine deaminase (CD); substrate 3H-Cytidine 25 μM): 80%
% Inhibitation (U/C kinase) (uridine/cytidine kinase; [8]): 0%
% Inhibitation (U/C kinase) (uridine/cytidine kinase; [9]): 5.1%
inhibition at 250 µM [3]: 72%

O=c1[nH]c(=O)n([C@H]2C[C@H](O)[C@@H](CO)O2)cc1Cl [5-Chlorodeoxyuridine]
% Inhibitation (U/C kinase) (uridine/cytidine kinase; competitor 200 μM, substrate 3H-Cytidine 8.3 μM): 7.0%
% Inhibitation (U/C kinase) (uridine/cytidine kinase; [8]): 0%

Nc1nc(=O)n([C@@H]2O[C@H](CO)[C@@H](O)[C@H]2O)cc1F [5-Fluorocytidine]
% Inhibitation (U/C kinase) (uridine/cytidine kinase; [6]): 34%
% Inhibitation (U/C kinase) (uridine/cytidine kinase; [7]): 51%
% Inhibitation (U/C kinase) (uridine/cytidine kinase; [8]): 58%
% Inhibitation (U/C kinase) (uridine/cytidine kinase; [9]): 66%

Nc1nc(=O)n([C@H]2C[C@H](O)[C@@H](CO)O2)cc1F [5-Fluorodeoxycytidine, reference compound]
inhibition at 250 µM (cytidine deaminase (CD); [4]): 50%
inhibition (cytidine deaminase (CD); substrate 3H-Cytidine 25 μM): 83%
% Inhibitation (U/C kinase) (uridine/cytidine kinase; [9]): 4.8%
inhibition at 250 µM [3]: 90%

O=c1[nH]c(=O)n([C@@H]2O[C@H](CO)[C@@H](O)[C@H]2O)cc1F [5-Fluorouridine]
% Inhibitation (U/C kinase) (uridine/cytidine kinase; [6]): 56%
% Inhibitation (U/C kinase) (uridine/cytidine kinase; [8]): 80%

Cc1cn([C@H]2C[C@H](O)[C@@H](CO)O2)c(=O)nc1N [5-methyldC, reference compound]
% Inhibition (CD) (cytidine deaminase (CD); substrate 3H-Cytidine 25 μM): 30%

Nc1ccn([C@@H]2O[C@H](CO)[C@@H](O)[C@H]2O)c(=O)n1 [Cytidine]
% Inhibitation (U/C kinase) (uridine/cytidine kinase; [5]): 66%
% Inhibitation (U/C kinase) (uridine/cytidine kinase; [6]): 57%
% Inhibitation (U/C kinase) (uridine/cytidine kinase; [7]): 85%
% Inhibitation (U/C kinase) (uridine/cytidine kinase; [8]): 89%
% Inhibitation (U/C kinase) (uridine/cytidine kinase; [9]): 88%
% Inhibitation (U/C kinase) (uridine/cytidine kinase; [10]): 90%
% Inhibitation (U/C kinase) (uridine/cytidine kinase; [11]): 96%

Nc1ccn([C@H]2C[C@H](O)[C@@H](CO)O2)c(=O)n1 [Deoxycytidine]
inhibition at 250 µM (cytidine deaminase (CD); [4]): 66%
% Inhibitation (U/C kinase) (uridine/cytidine kinase; [7]): 10%
% Inhibitation (U/C kinase) (uridine/cytidine kinase; [8]): 0%
% Inhibitation (U/C kinase) (uridine/cytidine kinase; [9]): 20%

O=c1ccn([C@H]2C[C@H](O)[C@@H](CO)O2)c(=O)[nH]1 [Deoxyuridine]
% Inhibitation (U/C kinase) (uridine/cytidine kinase; [8]): 0** %

O=c1[nH]c(=O)n([C@H]2C[C@H](O)[C@@H](CO)O2)cc1I [IdU, 5-Iododeoxyuridine, reference compound]
effect of tetrahydrouridine (H4U) on cytotoxicity / viability (in words) (PC-3 cells [2]): relative lack of the effect of tetrahydrouridine
effect of tetrahydrouridine (H4U) on radiosensitization (in words) (PC-3 cells [1]): relative lack of the effect of tetrahydrouridine

O=c1ccn([C@@H]2O[C@H](CO)[C@@H](O)[C@H]2O)c(=O)[nH]1 [Uridine]
inhibition at 250 µM (cytidine deaminase (CD); [4]): 2%
% Inhibitation (U/C kinase) (uridine/cytidine kinase; [5]): 59%
% Inhibitation (U/C kinase) (uridine/cytidine kinase; [6]): 62%
% Inhibitation (U/C kinase) (uridine/cytidine kinase; [7]): 75%
% Inhibitation (U/C kinase) (uridine/cytidine kinase; [8]): 80%
% Inhibitation (U/C kinase) (uridine/cytidine kinase; [9]): 80%
% Inhibitation (U/C kinase) (uridine/cytidine kinase; [10]): 87%
% Inhibitation (U/C kinase) (uridine/cytidine kinase; competitor 750 μM, substrate 3H-Cytidine 8.3 μM): 86%
% Inhibitation (U/C kinase) (uridine/cytidine kinase; [11]): 90%
inhibition at 250 µM [3]: 0%
